In US8148391B2 (Cephalon, Inc., priority 2006, dated 2012) one finds IC50 data, which are given here for 17 compounds.

Test [1] has as its target T1, c-Met (cytoplasmic domain) (Homo sapiens, UniProt P08581).
T1 construct: 10 ng/mL c-Met (cytoplasmic domain, Invitrogen Corporation #PV3143); purchased Invitrogen Corporation PV3143
Put plainly: c-Met Kinase Assay (same methods as for ALK, with modifications). The class given is biochemical. The following applies: 1 μM ATP (Km level); read-out: cMet Activity (c-Met Kinase Inhibition, IC50). The gist of the method:
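This plate-based kinase format uses immobilized phospholipase C-γ as substrate, phosphorylated by c-Met cytoplasmic domain (10 ng/mL) at 37° C for 15 minutes.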

Test [2] addresses T2, baculovirus-expressed ALK (Homo sapiens, UniProt Q9UM73).
T2 construct: host or cells: baculovirus expression system
Put plainly: ALK Kinase Assay (ELISA-type, time-resolved fluorescence). It is filed as biochemical. As to conditions: 1 μM ATP (Km level); read-out: ALK Activity (ALK Kinase Inhibition, IC50). In outline:
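Substrate coating: phospholipase C-γ, 10 μg/mL in TBS. Kinase step: 30 ng/ml ALK, 15 min, 37° C. Detection and analysis: Eu-N1 PT66 antibody, with IC50 fitted as a sigmoidal variable-slope dose-response curve.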
(In general: An ELISA detects its analyte on a solid surface through an enzyme-linked reagent.)

T1 sequence (P08581 956-1390 limits assumed): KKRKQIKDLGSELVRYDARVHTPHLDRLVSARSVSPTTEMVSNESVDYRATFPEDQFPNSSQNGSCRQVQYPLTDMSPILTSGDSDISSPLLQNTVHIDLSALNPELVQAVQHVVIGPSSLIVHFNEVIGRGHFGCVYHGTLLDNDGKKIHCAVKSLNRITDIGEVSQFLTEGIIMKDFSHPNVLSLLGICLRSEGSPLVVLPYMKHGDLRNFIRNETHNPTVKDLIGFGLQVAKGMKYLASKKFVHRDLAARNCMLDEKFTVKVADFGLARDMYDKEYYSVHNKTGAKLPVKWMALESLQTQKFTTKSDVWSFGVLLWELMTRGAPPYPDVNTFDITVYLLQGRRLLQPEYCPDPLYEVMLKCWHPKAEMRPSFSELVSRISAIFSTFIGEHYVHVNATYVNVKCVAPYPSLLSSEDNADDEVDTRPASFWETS
T2 sequence (Q9UM73 19-1620): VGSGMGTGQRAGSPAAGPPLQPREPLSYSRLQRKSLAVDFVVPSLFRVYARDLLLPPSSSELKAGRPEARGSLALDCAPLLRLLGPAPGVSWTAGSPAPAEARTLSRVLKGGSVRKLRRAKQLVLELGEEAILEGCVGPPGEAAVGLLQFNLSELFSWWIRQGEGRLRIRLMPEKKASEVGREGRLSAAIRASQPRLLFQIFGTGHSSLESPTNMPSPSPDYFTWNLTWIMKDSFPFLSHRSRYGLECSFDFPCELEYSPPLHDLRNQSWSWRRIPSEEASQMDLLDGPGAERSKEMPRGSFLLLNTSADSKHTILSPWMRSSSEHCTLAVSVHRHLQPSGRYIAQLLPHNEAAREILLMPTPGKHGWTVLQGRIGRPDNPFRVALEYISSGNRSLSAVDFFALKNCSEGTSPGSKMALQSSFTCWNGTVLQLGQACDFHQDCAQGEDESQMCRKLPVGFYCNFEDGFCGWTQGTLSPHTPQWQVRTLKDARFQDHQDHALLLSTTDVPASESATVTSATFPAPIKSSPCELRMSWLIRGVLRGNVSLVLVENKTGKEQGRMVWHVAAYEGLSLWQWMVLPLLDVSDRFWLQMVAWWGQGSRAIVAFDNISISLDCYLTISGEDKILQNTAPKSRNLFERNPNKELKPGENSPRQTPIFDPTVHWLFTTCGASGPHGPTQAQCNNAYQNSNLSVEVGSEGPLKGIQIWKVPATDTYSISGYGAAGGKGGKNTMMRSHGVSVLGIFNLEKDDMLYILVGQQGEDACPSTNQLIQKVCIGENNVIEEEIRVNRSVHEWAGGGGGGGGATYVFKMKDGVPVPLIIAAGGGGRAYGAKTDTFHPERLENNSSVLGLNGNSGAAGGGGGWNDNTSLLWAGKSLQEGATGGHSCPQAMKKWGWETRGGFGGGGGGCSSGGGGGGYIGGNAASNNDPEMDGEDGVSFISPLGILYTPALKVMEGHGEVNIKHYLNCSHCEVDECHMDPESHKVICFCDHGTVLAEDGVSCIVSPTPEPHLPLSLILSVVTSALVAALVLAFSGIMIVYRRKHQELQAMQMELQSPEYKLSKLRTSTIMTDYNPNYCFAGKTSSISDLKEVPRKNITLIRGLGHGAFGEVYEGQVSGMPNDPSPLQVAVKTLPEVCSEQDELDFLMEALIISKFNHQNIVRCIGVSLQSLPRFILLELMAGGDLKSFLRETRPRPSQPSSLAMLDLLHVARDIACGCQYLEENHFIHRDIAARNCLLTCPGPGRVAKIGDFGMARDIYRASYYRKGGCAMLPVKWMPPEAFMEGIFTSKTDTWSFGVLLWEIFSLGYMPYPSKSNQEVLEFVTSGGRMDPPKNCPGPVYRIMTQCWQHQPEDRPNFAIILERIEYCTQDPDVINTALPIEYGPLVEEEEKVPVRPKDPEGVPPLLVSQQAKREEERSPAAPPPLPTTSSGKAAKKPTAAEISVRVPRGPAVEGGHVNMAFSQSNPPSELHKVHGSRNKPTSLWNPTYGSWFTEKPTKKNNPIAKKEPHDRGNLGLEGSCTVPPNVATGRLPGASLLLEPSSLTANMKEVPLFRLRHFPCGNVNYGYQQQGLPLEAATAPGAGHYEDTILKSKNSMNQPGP

On to `COCCNC1CCc2cc(Nc3ncc(Cl)c(N[C@@H]4CCCC[C@H]4NS(C)(=O)=O)n3)c(OC)cc2CC1` (stereo partly drawn) [Example 896, N-((1R,2R)-2-{5-Chloro-2-[3-methoxy-7-(2-methoxy-ethylamino)-6,7,8,9-tetrahydro-5H-benzocyclohepten-2-ylamino]-pyrimidin-4-ylamino}-cyclohexyl)-methanesulfonamide], for which the IC50 – broadly, the concentration that inhibits the measured activity by half – was above 10000 nM in test [1] and below 100 nM in test [2].
As to `COc1c(Nc2ncc(Cl)c(Nc3ccccc3S(=O)(=O)N3CCCC3)n2)ccc2c1CCC(N1CCOCC1)CC2` (stereo not shown) [Example 900, 5-Chloro-N*2*-(1-methoxy-7-morpholin-4-yl-6,7,8,9-tetrahydro-5H-benzocyclohepten-2-yl)-N*4*-[2-(pyrrolidine-1-sulfonyl)-phenyl]-pyrimidine-2,4-diamine], the IC50 in test [1] is 1000 to 10000 nM; in test [2] it was below 100 nM.
As to `COc1c(Nc2ncc(Cl)c(Nc3ccccc3-n3cccn3)n2)ccc2c1CCC(N1CCOCC1)CC2` (stereo not shown) [Example 901, 5-Chloro-N*2*-(1-methoxy-7-morpholin-4-yl-6,7,8,9-tetrahydro-5H-benzocyclohepten-2-yl)-N*4*-(2-pyrazol-1-yl-phenyl)-pyrimidine-2,4-diamine], the figures for the IC50 in test [1] and in test [2] were 1000 to 10000 nM and below 100 nM, respectively.
For `COc1c(Nc2ncc(Cl)c(N[C@H]3[C@@H](C(N)=O)[C@@H]4C=C[C@H]3C4)n2)ccc2c1CCC(N1CCCC(O)C1)CC2` (stereo partly drawn) [Example 909, (1S,2S,3R,4R)-3-{5-Chloro-2-[7-(3-hydroxy-piperidin-1-yl)-1-methoxy-6,7,8,9-tetrahydro-5H-benzocyclohepten-2-ylamino]-pyrimidin-4-ylamino}-bicyclo[2.2.1]hept-5-ene-2-carboxylic acid amide], in that order: 1000 to 10000 nM and below 100 nM.
For `COc1c(Nc2ncc(Cl)c(N[C@H]3[C@@H](C(N)=O)[C@@H]4C=C[C@H]3C4)n2)ccc2c1CCC(N1CCCC(O)C1)CC2` (stereo partly drawn) [Example 910, (1S,2S,3R,4R)-3-{5-Chloro-2-[7-(3-hydroxy-piperidin-1-yl)-1-methoxy-6,7,8,9-tetrahydro-5H-benzocyclohepten-2-ylamino]-pyrimidin-4-ylamino}-bicyclo[2.2.1]hept-5-ene-2-carboxylic acid amide] the same measures were above 10000 nM and below 100 nM.
For `COc1c(Nc2ncc(Cl)c(Nc3ccccc3S(=O)(=O)N(C)C)n2)ccc2c1CCC(N1CCN(C)CC1)CC2` (stereo not shown) [Example 911, 2-{5-Chloro-2-[1-methoxy-7-(4-methyl-piperazin-1-yl)-6,7,8,9-tetrahydro-5H-benzocyclohepten-2-ylamino]-pyrimidin-4-ylamino}-N,N-dimethyl-benzenesulfonamide] the same measures were 1000 to 10000 nM and below 100 nM.
For `CNC(=O)c1ccccc1Nc1nc(Nc2ccc3c(c2)CCCC(=O)N3CCOC)ncc1C(F)(F)F` [Example 921, 2-{2-[1-(2-Methoxyethyl)-2-oxo-2,3,4,5-tetrahydro-1H-benzo[b]azepin-7-ylamino]-5-trifluoromethylpyrimidin-4-ylamino}-N-methylbenzamide], the IC50 in test [1] and in test [2] was below 100 nM throughout.
In the case of `CNC(=O)c1cccc(C)c1Nc1nc(Nc2ccc3c(c2)CCN(CCOC)CC3)ncc1C(F)(F)F` [Example 922, 2-{2-[3-(2-Methoxyethyl)-2,3,4,5-tetrahydro-1H-benzo[d]azepin-7-ylamino]-5-trifluoromethylpyrimidin-4-ylamino}-3,N-dimethylbenzamide], the values for the IC50 in test [1] and in test [2] were below 100 nM and 100 to 1000 nM, respectively.
On to `CNC(=O)c1ccccc1Nc1nc(Nc2ccc3c(c2)CCC(N2CCOCC2)CC3)ncc1C(F)(F)F` (stereo not shown) [Example 923, N-Methyl-2-[2-(7-morpholin-4-yl-6,7,8,9-tetrahydro-5H-benzocyclohepten-2-ylamino)-5-trifluoromethyl-pyrimidin-4-ylamino]-benzamide], for which the IC50 in test [1] and in test [2] was below 100 nM in each case.
As for `CCN1CCc2ccc(Nc3ncc(C(F)(F)F)c(Nc4ccc(N5CCOCC5)cc4OC)n3)cc2CC1` [Example 924, N(2)-(3-Ethyl-2,3,4,5-tetrahydro-1H-benzo[d]azepin-7-yl)-N(4)-(2-methoxy-4-morpholin-4-yl-phenyl)-5-trifluoromethylpyrimidine-2,4-diamine], the concentration for half-maximal inhibition (IC50) in test [1] is 100 to 1000 nM; in test [2] it was below 100 nM.
For `CNC(=O)c1cccc(F)c1Nc1nc(Nc2ccc3c(c2)N(CCOC)C(=O)CCC3)ncc1C(F)(F)F` [Example 926, 3-Fluoro-2-{2-[1-(2-methoxy-ethyl)-2-oxo-2,3,4,5-tetrahydro-1H-benzo[b]azepin-8-ylamino]-5-trifluoromethyl-pyrimidin-4-ylamino}-N-methyl-benzamide] the same measures were below 100 nM and below 100 nM.
For `CCN1CCc2ccc(Nc3ncc(Cl)c(Nc4cccc(OCC#N)c4)n3)cc2CC1` [Example 927, {3-[5-Chloro-2-(3-ethyl-2,3,4,5-tetrahydro-1H-benzo[d]azepin-7-ylamino)-pyrimidin-4-ylamino]-phenoxy}-acetonitrile], in that order: 100 to 1000 nM and below 100 nM.
In the case of `CCN1CCc2ccc(Nc3ncc(Cl)c(Nc4ccccc4OCC#N)n3)cc2CC1` [Example 928, {2-[5-Chloro-2-(3-ethyl-2,3,4,5-tetrahydro-1H-benzo[d]azepin-7-ylamino)-pyrimidin-4-ylamino]-phenoxy}-acetonitrile], the IC50 in test [1] and in test [2] was below 100 nM in each case.
With `CCCNC(=O)c1ccc(Nc2nc(Nc3ccc4c(c3)CCC(N3CCOCC3)CC4)ncc2Cl)c(OC)c1` (stereo not shown) [Example 929, 4-[5-Chloro-2-(7-morpholin-4-yl-6,7,8,9-tetrahydro-5H-benzocyclohepten-2-ylamino)-pyrimidin-4-ylamino]-3-methoxy-N-propyl-benzamide], the IC50 in test [1] was above 10000 nM; in test [2], below 100 nM.
For `CC1(C)CCC(=O)Nc2cc(Nc3ncc(Cl)c(Nc4c(F)cccc4OCC#N)n3)ccc21` [Example 930, {2-[5-Chloro-2-(5,5-dimethyl-2-oxo-2,3,4,5-tetrahydro-1H-1-benzazepin-8-ylamino)-pyrimidin-4-ylamino]-3-fluoro-phenoxy}-acetonitrile] the same measures were below 100 nM and below 100 nM.
Take `COCCN1CCc2ccc(Nc3ncc(Cl)c(Nc4c(F)cccc4OCC#N)n3)cc2CC1` [Example 931, (2-{5-Chloro-2-[3-(2-methoxy-ethyl)-2,3,4,5-tetrahydro-1H-3-benzazepin-7-ylamino]-pyrimidin-4-ylamino}-3-fluoro-phenoxy)-acetonitrile]: the 50% inhibitory concentration (IC50) in test [1] and in test [2] was below 100 nM throughout.
Consider `COc1cc2c(cc1Nc1ncc(C(F)(F)F)c(Nc3ccccc3S(=O)(=O)C(C)C)n1)CCN(CC(=O)N(C)C)CC2` [Example 932, 2-(7-Methoxy-8-{4-[2-(propane-2-sulfonyl)-phenylamino]-5-trifluoromethyl-pyrimidin-2-ylamino}-1,2,4,5-tetrahydro-3-benzazepin-3-yl)-N,N-dimethyl-acetamide], for which the concentration for half-maximal inhibition (IC50) in test [1] was above 10000 nM; in test [2], 1000 to 10000 nM.
